Source: patent US11291651B2, “Glycopyrrolate salts” (Journey Medical Corporation, priority 2013, dated 2022)

Key:
[1] = glass transition temperature by modulated DSC; type: physicochemical; conditions: amorphous solid
Protocol: DSC was performed using a TA Instruments 2920 differential scanning calorimeter. Temperature calibration was performed using NIST-traceable indium metal. The sample was placed into an aluminum DSC pan, covered with a lid, and the weight was accurately recorded. A weighed aluminum pan configured as the sample pan was placed on the reference side of the cell. Modulated DSC data (see, e.g., FIG. 23) were obtained on a TA Instruments Q2000 differential scanning calorimeter equipped with a refrigerated cooling system (RCS). Temperature calibration was performed using NIST-traceable indium metal. The sample was placed into an aluminum DSC pan, and the weight was accurately recorded. The pan was covered with a lid perforated with a laser pinhole, and the lid was hermetically sealed. A weighed, crimped aluminum pan was placed on the reference side of the cell. Data were obtained using a modulation amplitude of ±1° C. and a 60 second period with an underlying heating rate of 2° C./minute from −50 to 220° C. The reported glass transition temperatures are obtained from the inflection point of the step change in the reversing heat flow versus temperature curve.

[2] = exposed to standard atmospheric conditions
From the text: In addition, the extremely low glass transition renders the amorphous form of glycopyrrolate challenging to formulate successfully.

[3] = test system: patients suffering from hyperhidrosis; assay: study in patients suffering from hyperhidrosis treated with 2% and 4% glycopyrrolate formulations; type: in vivo
From the text: (§1) By topical, what is meant is a material or formulation comprising or containing glycopyrrolate tosylate which may be used to deliver glycopyrrolate tosylate, including a pharmaceutically effective amount of glycopyrrolate tosylate, to a patient. In many embodiments, the glycopyrrolate tosylate is threo glycopyrrolate tosylate. Examples of a topical include, but are not limited to, solutions, ointments, gels, lotions, powders, sprays, creams, cream bases, patches, pastes, washes, dressings, masks, gauzes, bandages, swabs, brushes, or pads. The application of the topical may be controlled by controlling the dose amount or the rate of release. The dose may be controlled by dissolving or dispensing threo glycopyrrolate tosylate, for example, in the appropriate medium. These and other dose controlling formulations may be used to deliver controlled doses such as specific unit doses, metered doses, or multiple doses from the topical.

hyperhidrosis = conditions: topically applied; compared with aluminum chloride; cited from earlier work
[4] = biological target: M3 muscarinic acetylcholine receptor (Homo sapiens, UniProt P20309); assay: binding affinity for the M3 muscarinic acetylcholine receptor in vitro; conditions: glycopyrronium delivered as bromide or tosylate salt
Chain of M3 muscarinic acetylcholine receptor (P20309 whole entry): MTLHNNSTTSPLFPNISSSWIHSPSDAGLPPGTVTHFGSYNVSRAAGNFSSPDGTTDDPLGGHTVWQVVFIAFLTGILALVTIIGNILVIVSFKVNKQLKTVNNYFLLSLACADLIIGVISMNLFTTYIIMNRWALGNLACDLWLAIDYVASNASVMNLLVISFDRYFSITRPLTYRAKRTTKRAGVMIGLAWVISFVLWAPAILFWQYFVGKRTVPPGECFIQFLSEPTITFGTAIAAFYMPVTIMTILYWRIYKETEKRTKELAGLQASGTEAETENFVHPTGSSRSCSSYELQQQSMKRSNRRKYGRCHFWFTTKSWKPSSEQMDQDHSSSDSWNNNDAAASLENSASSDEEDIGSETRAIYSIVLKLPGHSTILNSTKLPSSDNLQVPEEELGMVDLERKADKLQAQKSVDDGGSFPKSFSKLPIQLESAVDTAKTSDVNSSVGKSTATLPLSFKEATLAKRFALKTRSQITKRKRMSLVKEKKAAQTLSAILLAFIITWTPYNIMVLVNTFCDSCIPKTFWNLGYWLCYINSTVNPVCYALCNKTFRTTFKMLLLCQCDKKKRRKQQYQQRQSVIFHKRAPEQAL
From the text: as §1, with “Such dose dependency is consistent with glycopyrrolate's anti-muscarinic activity. Accordingly, glycopyrrolate tosylate may also be used to treat hyperhidrosis in patients such as by administering a topical containing glycopyrrolate tosylate. By” for “By”

Question: What does the source list for `C[N+]1(C)CCC(OC(=O)C(O)(c2ccccc2)C2CCCC2)C1.Cc1ccc(S(=O)(=O)[O-])cc1.O` (stereo not drawn) [amorphous glycopyrrolate tosylate]?
Answer: onset of the glass transition temperature [1]: 11.6 °C; hygroscopicity [2]: extremely hygroscopic which deliquesced readily

Question: With `C[N+]1(C)CCC(OC(=O)C(O)(c2ccccc2)C2CCCC2)C1` (stereo not drawn) [glycopyrrolate bromide, glycopyrronium bromide] as the compound, how does the efficacy responses ([3]; 2% and 4% glycopyrrolate formulations) read?
Answer: The efficacy responses was “dose dependent trend”.

Question: What about the axillary sweating ([3]; formulations containing 2% and 4% glycopyrrolate based on a glycopyrrolate bromide preparation) of the same compound?
Answer: The axillary sweating was “reduced”.

Question: And the effectiveness (hyperhidrosis)?
Answer: The effectiveness was “increased effectiveness”.

Question: And the “binding affinity for the M3 muscarinic acetylcholine receptor” value [4]?
Answer: The value was “equivalent binding affinity”.
